The target in assay [1] is T1, actMMP-9 / CI (Homo sapiens, UniProt P14780).
T1 construct: purchased Invitek
Briefly: SPR, competition of actMMP-9 binding to CI, nonactivating buffer. Particulars: actMMP-9 (100 nM) binding to CI with 10× (GPO)10; PBS, 0.05% Tween 20. Here is the method: (§1) Sensor chip preparations and SPR measurements were performed using a BiacoreX device and the Bia-evaluation software (version 3.2; Biacore, Uppsala, Sweden). The pepsin-resistant triple-helical part of human fibrillar CI (100 μg/ml) in 10 mM acetate coupling buffer, pH 4.8, was immobilized to a dextran matrix-sensor chip at a flow rate of 5 μl/min, resulting in 5,500 resonance units from CI covalently linked via its primary amino groups. The control flow cell was prepared using the coupling buffer without CI. Surfaces were activated and blocked as described previously. […] The effects of (GPO)10, GAP, (POG)5, (GPP)10 and P33-42 on MMP-2 and MMP-9 binding to CI and their enzymatic activity were determined by adding the binding competitors to the (pro- and act)MMP-2 and MMP-9 solution in 10- to 150-fold molar excesses. Effects independent of MMP-2 and MMP-9 activity were monitored in the presence of Ro 28-2653 (1 μM) during SPR analysis. […] Kinetic parameters were analyzed using the 1:1 binding model with drifting baseline and subtraction of the control flow cell binding from sensorgrams obtained with immobilized CI. Binding constants (Kd) were calculated from the association (ka) and dissociation rates (kd) obtained from individual binding curves at different concentrations. […]
(SPR reads the build-up and loss of mass on a sensor chip optically.)

Assay [2] deals with T2, proMMP-9 / CI (Homo sapiens, UniProt P14780).
T2 construct: prodomain-containing proMMP-2 or proMMP-9; purchased Invitek
T2 sequence (P14780 20-707 limits assumed): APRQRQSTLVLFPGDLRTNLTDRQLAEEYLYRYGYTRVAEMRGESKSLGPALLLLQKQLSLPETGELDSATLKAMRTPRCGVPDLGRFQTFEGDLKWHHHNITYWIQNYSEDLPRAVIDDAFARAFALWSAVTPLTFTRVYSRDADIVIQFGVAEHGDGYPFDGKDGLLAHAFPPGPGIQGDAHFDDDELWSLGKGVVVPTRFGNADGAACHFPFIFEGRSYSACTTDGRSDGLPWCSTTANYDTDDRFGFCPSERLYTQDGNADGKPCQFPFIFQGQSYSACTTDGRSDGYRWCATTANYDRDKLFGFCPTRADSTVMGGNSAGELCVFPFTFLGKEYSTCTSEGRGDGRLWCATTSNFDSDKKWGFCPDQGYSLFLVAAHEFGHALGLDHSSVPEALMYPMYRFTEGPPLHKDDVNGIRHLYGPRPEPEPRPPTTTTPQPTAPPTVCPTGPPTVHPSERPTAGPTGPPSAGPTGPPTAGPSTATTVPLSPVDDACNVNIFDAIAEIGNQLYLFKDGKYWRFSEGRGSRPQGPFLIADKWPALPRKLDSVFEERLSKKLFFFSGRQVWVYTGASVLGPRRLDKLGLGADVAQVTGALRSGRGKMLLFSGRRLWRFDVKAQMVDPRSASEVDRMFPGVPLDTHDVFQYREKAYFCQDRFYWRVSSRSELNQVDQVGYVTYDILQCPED
The experiment in a line: SPR, competition of proMMP-9 binding to CI, MMP activity buffer. Particulars: proMMP-9 (25-150 nM), 10-fold molar excess. Here is the method:
as §1

Assay [3] deals with T3, actMMP-2 / CI (Homo sapiens, UniProt P08253).
T3 construct: purchased Invitek
T3 sequence (P08253 110-660): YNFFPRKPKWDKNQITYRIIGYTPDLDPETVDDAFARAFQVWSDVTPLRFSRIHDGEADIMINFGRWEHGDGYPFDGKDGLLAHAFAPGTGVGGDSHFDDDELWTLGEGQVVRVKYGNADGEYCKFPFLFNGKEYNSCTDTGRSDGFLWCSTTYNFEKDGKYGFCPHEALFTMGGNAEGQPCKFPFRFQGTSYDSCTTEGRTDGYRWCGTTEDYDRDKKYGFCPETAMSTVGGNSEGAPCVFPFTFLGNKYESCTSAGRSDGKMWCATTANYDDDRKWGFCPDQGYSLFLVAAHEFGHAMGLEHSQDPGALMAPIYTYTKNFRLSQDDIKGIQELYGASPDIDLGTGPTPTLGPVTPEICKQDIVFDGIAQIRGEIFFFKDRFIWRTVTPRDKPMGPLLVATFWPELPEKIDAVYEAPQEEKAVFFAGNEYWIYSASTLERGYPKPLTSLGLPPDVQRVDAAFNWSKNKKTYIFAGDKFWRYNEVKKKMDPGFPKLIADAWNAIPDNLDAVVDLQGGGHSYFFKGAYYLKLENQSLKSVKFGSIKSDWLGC
Briefly: SPR, competition of actMMP-2 binding to CI, MMP activity buffer with Ro 28-2653. Particulars: actMMP-2 100 nM, 1 μM Ro 28-2653, 25°C, mean ± SD, at least three experiments. Here is the method: as §1

In assay [4] the test system is ProMMP-2. Briefly: Substrate gel zymography of treated proMMP-2. Particulars: 50 ng proMMP-2, 2-h incubation at room temperature. The format is biochemical, human. As for the experimental part: Samples containing MMP-2 were diluted with zymogram sample buffer (Bio-Rad, Munich, Germany) and separated on homogeneous 10% SDS-PAGE gels containing 1 mg/ml (wt/vol) gelatine (Bio-Rad), washed with excess MMP activity buffer containing 2.5% (vol/vol) Triton X-100 to remove SDS, and incubated with MMP activity buffer for 24 h. Gels were stained with Coomassie Blue R-250. Gels showing proteolytic bands corresponding to proMMP-2 (72 kDa) or actMMP-2 (62 kDa) were scanned (Plustek, Norderstedt, Germany) and analyzed from inverted grayscale images.

The target in assay [5] is T3, actMMP-2 / CI. Briefly: SPR, competition of actMMP-2 binding to CI, nonactivating buffer. As for the experimental part:
as §1

“Also recorded” adds a separate entry of the source.

T1 sequence (P14780 107-707 limits assumed): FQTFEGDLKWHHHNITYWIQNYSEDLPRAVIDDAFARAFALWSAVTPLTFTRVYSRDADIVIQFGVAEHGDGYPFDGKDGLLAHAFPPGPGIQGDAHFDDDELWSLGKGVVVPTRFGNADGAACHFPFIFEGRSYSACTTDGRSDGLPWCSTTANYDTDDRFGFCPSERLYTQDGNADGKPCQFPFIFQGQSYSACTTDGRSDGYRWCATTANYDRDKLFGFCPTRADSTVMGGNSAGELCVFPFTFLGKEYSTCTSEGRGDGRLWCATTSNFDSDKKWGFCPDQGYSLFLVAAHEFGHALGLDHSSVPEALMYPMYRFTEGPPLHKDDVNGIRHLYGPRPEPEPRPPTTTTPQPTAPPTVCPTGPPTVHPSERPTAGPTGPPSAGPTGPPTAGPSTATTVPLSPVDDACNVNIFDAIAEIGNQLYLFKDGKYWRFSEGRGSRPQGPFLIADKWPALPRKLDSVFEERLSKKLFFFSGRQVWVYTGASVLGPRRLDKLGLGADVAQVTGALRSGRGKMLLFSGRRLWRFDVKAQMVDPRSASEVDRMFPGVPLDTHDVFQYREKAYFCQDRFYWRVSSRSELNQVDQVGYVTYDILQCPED

Consider “H-Gly-Cys-Hyp-(Gly-Pro-Hyp)10-Gly-Cys-Hyp-Gly-NH2 [(GPO)10, triple-helical Hyp-containing collagen analog]”, for which the Off rate came out at 0.61 s⁻¹ in assay [1] and 0.56 s⁻¹ in assay [5] (actMMP-2 (100 nM) binding to CI with 10× (GPO)10, PBS, 0.05% Tween 20). Besides, the “effect on binding to CI” value in assay [2] is reported as “abolished binding of proMMP-9 to CI”; in assay [5] (actMMP-2, 10-fold molar excess), “only slightly impaired”. For the same substance, the “Kd for binding to CI in the presence of 10-fold molar excess of competitor” value in assay [3] was 2,710.0 ± 90.0 nM. In assay [4], the “substrate zymography, prodomain-free actMMP-2 band” value was “faint band of prodomain-free actMMP-2; also recorded: not accompanied by strong prodomain cleavage”.

(Values after article PMC3024946, “Hydroxyproline-containing collagen analogs trigger the release and activation of collagen-sequestered proMMP-2 by competition with prodomain-derived peptide P33-42” (Fibrogenesis & Tissue Repair, 2011).)
